Assay results reported in BindingDB's records for PubMed 7969084 (Merck Sharp and Dohme Research Laboratories, 1994).

Molecular target: T1, Cholecystokinin (Sus scrofa, UniProt P01356)
T1 sequence (P01356 whole entry): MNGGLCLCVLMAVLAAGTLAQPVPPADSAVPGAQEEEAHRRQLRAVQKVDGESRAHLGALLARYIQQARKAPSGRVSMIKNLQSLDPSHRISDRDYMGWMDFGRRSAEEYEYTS

Cc1cccc(NC(=O)N[C@@H]2N=C(N3CCCCCC3)c3ccccc3N(C)C2=O)c1 [L-738416]
Ki: 1.2 nM
